Measurements reported in PubChem BioAssay (NCI).
Several values for one entry are separate records, joined by “and”; a condition that tells them apart may be missing. Equal entries are not always repeated.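 Dose response: 5 concentrations. Exposure: 48 h. Format: 96-well plates. Endpoint: linear interpolation; highest concentration if not reached. GI50 = concentration required for 50% inhibition of growth. Definition used: TGI = concentration required for complete inhibition of growth.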

Experiments:
Experiment in all cases: DTP human tumour cell line panel, 48 h
COLO 205 colon = system: COLO 205 colon
OVCAR-5 ovarian = system: OVCAR-5 ovarian
MDA-MB-435 = system: MDA-MB-435
K-562 leukemia = system: K-562 leukemia
CAKI-1 renal = system: CAKI-1 renal
SR leukemia = system: SR leukemia
ACHN renal = system: ACHN renal

SMILES	GI50 (COLO 205 colon)	TGI (COLO 205 colon)	GI50 (OVCAR-5 ovarian)	TGI (OVCAR-5 ovarian)	GI50 (MDA-MB-435)	TGI (MDA-MB-435)	GI50 (K-562 leukemia)	TGI (K-562 leukemia)	GI50 (CAKI-1 renal)	TGI (CAKI-1 renal)	GI50 (SR leukemia)	TGI (SR leukemia)	GI50 (ACHN renal)	TGI (ACHN renal)
CCOC(=O)C(=Cc1cccc(Cl)c1)C(=O)OCC	2.21 µM	4.42 µM	1.8 µM	3.54 µM	2.07 µM	5.04 µM	3.18 µM	> 100 µM	2.19 µM	5.45 µM	1.55 µM	> 100 µM	1.89 µM	4.23 µM
COc1ccc(-c2oc(=O)ccc2-c2cc(OC)c(OC)c(OC)c2)cc1F	18 µM	> 100 µM	35.6 µM	> 100 µM	2.13 µM	6.66 µM	4.08 µM	> 100 µM	9.64 µM	> 100 µM	1.57 µM	9.44 µM	25.2 µM	> 100 µM
Cc1nc2ccccc2nc1-c1ccc(N=[N+]([O-])c2ccc(-c3nc4ccccc4nc3C)cc2)cc1	–	> 100 µM	–	> 100 µM	–	> 100 µM	–	> 100 µM	–	> 100 µM	–	> 100 µM	–	> 100 µM
COc1ccc2[nH]cc(-c3nc(-c4c[nH]c5ncccc45)cs3)c2c1	0.661 µM	3.88 µM	> 100 µM	> 100 µM	5.87 µM	> 100 µM	2.68 µM	> 100 µM	2.05 µM	> 100 µM	2.91 µM	> 100 µM	2.85 µM	> 100 µM
C1CSCCSCCS1	–	> 100 µM	–	> 100 µM	–	> 100 µM	–	> 100 µM	–	–	–	> 100 µM	–	–
Cc1ccc(Cl)cc1Nc1nc(C(F)(F)F)ccc1C(=O)N1CCN(c2cccc(Cl)c2)CC1	> 100 µM	> 100 µM	> 100 µM	> 100 µM	> 100 µM	> 100 µM	> 100 µM	> 100 µM	26.4 µM	> 100 µM	3.06 µM	> 100 µM	> 100 µM	> 100 µM
Oc1cc(O)c2c(c1)OC(c1ccc(O)c(O)c1)C(OC1(c3cc(O)c(O)c(O)c3)Oc3cc(O)cc(O)c3C(O)C1O)C2 (stereo not drawn)	–	> 85.9 µM	–	59.3 µM	–	37.6 µM	–	43.6 µM	–	81.1 µM	–	84.7 µM	–	> 100 µM
O=C(CC(O)(C(F)(F)F)C(F)(F)F)c1cc(CC(=O)C(O)(C(F)(F)F)C(F)(F)F)cc(CC(=O)C(O)(C(F)(F)F)C(F)(F)F)c1	–	3.06 µM	–	> 9.25 µM	–	> 4.25 µM	–	> 10 µM	–	5.34 µM	–	> 10 µM	–	> 6.02 µM
Cn1cnc([N+](=O)[O-])c1S(=O)(=O)Oc1ccccc1	1.68 µM	3.29 µM	23.9 µM	74.9 µM	9.84 µM	31.9 µM	2.52 µM	15.5 µM	1.66 µM	3.41 µM	–	–	1.8 µM	3.37 µM
Nc1nccc2c1ccn2-c1ccc(NC(=O)c2ccc(N3CCOCC3)c(C(F)(F)F)c2)cc1	0.297 µM	0.871 µM	1.64 µM	20.6 µM	0.69 µM	2.99 µM	0.687 µM	> 100 µM	0.484 µM	3.45 µM	0.684 µM	> 100 µM	0.928 µM	16.3 µM
Nc1c(C(=O)Nc2cccc(Br)c2)sc2nc3c(cc12)C(=O)CCC3	0.401 µM	–	6.82 µM	> 100 µM	0.0915 µM	0.348 µM	0.14 µM	> 100 µM	0.615 µM	> 100 µM	0.525 µM	> 100 µM	15.7 µM	> 100 µM
CC1=CC(=O)[C@@H](O)[C@]2(C)[C@H]3[C@@]4(O)OC[C@]35[C@H]([C@@H](C)[C@H]4O)[C@@H](O)C(=O)O[C@@H]5C[C@@H]12	–	2.45 µM	–	5.4 µM	–	1.73 µM	–	> 100 µM	–	5.3 µM	–	> 100 µM	–	5.4 µM
COc1cc(C2c3cc4c(cc3C(O)C(CO)C2CO)OCO4)cc(OC)c1OC (stereo not drawn)	0.725 µM	5.76 µM	5.69 µM	> 100 µM	0.197 µM	0.549 µM	0.432 µM	> 100 µM	3.09 µM	> 46.2 µM	0.342 µM	> 48.5 µM	8.09 µM	> 100 µM
C=CCCCCCCCCCCC1(O)C=CC2=[N+](CCCCCN=C(N)N)CCCN21 (stereo not drawn)	2.78 µM	13.9 µM	6.25 µM	20.8 µM	12.3 µM	31.1 µM	2.76 µM	15.9 µM	3.22 µM	14.1 µM	–	–	11.5 µM	24.5 µM
CC1(C)OCCn2c1nc1c(N3CCOCC3)nc(-c3cnc(N)nc3)nc12	0.217 µM	5.95 µM	0.249 µM	> 100 µM	0.27 µM	–	2.27 µM	> 100 µM	–	–	0.752 µM	> 83.6 µM	0.274 µM	> 100 µM
CCOc1ccc2nc(S/C(=C/C=C(C#N)C#N)c3ccc(C)cc3)sc2c1	25.8 µM	> 100 µM	57.5 µM	> 100 µM	20.7 µM	59.4 µM	5.28 µM	55 µM	17.1 µM	54.6 µM	2.92 µM	7.43 µM	18.4 µM	36.9 µM
COC12C=C/C(=C(/C(=O)OCc3ccncc3)C(=O)CCCCCCCCC3(OC)C=C/C(=C(/C(=O)OCc4ccncc4)C(=O)CCCCCCCC1)O3)O2	0.78 µM	2.18 µM	0.87 µM	4.6 µM	0.121 µM	0.312 µM	–	–	1.12 µM	2.85 µM	0.191 µM	7.01 µM	0.217 µM	1.14 µM
Cn1cc(C2=C(c3cn(C)c4cc(C(N)=O)ccc34)C(=O)NC2=O)c2ccccc21	0.914 µM	6.08 µM	11.1 µM	> 25 µM	–	–	0.857 µM	> 25 µM	0.831 µM	10.7 µM	0.656 µM	> 22.8 µM	2.64 µM	> 25 µM

SMILES	GI50 (COLO 205 colon)	TGI (COLO 205 colon)	GI50 (OVCAR-5 ovarian)	TGI (OVCAR-5 ovarian)	GI50 (MDA-MB-435)	TGI (MDA-MB-435)	GI50 (K-562 leukemia)	TGI (K-562 leukemia)	GI50 (CAKI-1 renal)	TGI (CAKI-1 renal)	GI50 (SR leukemia)	TGI (SR leukemia)	GI50 (ACHN renal)	TGI (ACHN renal)
CCN(CC)CCOc1ccc(/C=C2\CC3C4CC=C5C[C@@H](O)CC[C@]5(C)C4CC[C@]3(C)C2=O)cc1OC (stereo partly drawn)	–	–	5.53 µM	20.3 µM	1.94 µM	3.74 µM	3.09 µM	> 38.2 µM	4.14 µM	16.3 µM	0.955 µM	3.9 µM	1.77 µM	3.32 µM
Cc1ccc(-c2nc3ccc([N+](=O)[O-])cc3[nH]2)cc1	–	> 100 µM	–	–	–	> 100 µM	–	> 100 µM	–	> 100 µM	–	> 100 µM	–	> 100 µM
CC(C)=CCc1cc(O)cc2c1OC(C=C(C)C)C1=C2C(=O)C2=C(NCCS2(=O)=O)C1=O (stereo not drawn)	2.67 µM	5.57 µM	3.72 µM	7.01 µM	0.315 µM	0.634 µM	3.07 µM	14.6 µM	–	–	–	–	3.18 µM	10.6 µM
CS(=O)(=O)CCCn1c(=O)c(Oc2ccc(F)cc2F)cc2cnc(NC3CCOCC3)nc21	> 25 µM	> 25 µM	> 25 µM	> 25 µM	> 25 µM	> 25 µM	> 25 µM	> 25 µM	> 25 µM	> 25 µM	> 25 µM	> 25 µM	> 25 µM	> 25 µM
CC(=O)c1cc2c(o1)C(=O)c1ccccc1C2=O	0.192 µM and 1.72 µM	0.374 µM and 3.44 µM	0.181 µM and 0.186 µM	0.346 µM and 0.345 µM	0.089 µM and 0.181 µM	0.238 µM and 0.33 µM	0.284 µM and 0.311 µM	0.795 µM and 1.53 µM	1.45 µM and 0.823 µM	2.93 µM and 2.24 µM	0.299 µM and 0.308 µM	5.36 µM	0.467 µM and 0.415 µM	1.6 µM and 1.31 µM
Cc1csc(Nc2nc(-c3cccc(Br)c3)nc(C(Cl)(Cl)Cl)n2)n1	0.855 µM	> 23.3 µM	5.2 µM	> 100 µM	6.07 µM	> 100 µM	> 24.9 µM	> 100 µM	2.41 µM	> 100 µM	–	–	0.475 µM	2.97 µM
O=c1[nH]c(=O)n(C2CC(O)C(CO)O2)cc1CO (stereo not drawn)	> 100 µM	> 100 µM	> 100 µM	> 100 µM	> 100 µM	> 100 µM	> 100 µM	> 100 µM	> 100 µM	> 100 µM	> 100 µM	> 100 µM	> 100 µM	> 100 µM
CC(CC(=O)O)C(C(=O)O)C(=O)O (stereo not drawn)	–	> 100 µM	–	> 100 µM	–	> 100 µM	–	> 100 µM	–	> 100 µM	–	> 100 µM	–	> 100 µM
O=c1cc2oc3cc(O)c(O)cc3c(-c3ccccc3O)c-2cc1O	36.3 µM	> 100 µM	44.6 µM	> 100 µM	4.57 µM	> 100 µM	5.76 µM	> 100 µM	3.04 µM	11.1 µM	4.65 µM	> 100 µM	4.13 µM	> 100 µM
N#C/C=C(\c1ccc([N+](=O)[O-])cc1)n1nnc2cc(Cl)c(Cl)cc21	1.91 µM	3.91 µM	1.95 µM	3.99 µM	1.75 µM	3.7 µM	2.39 µM	> 100 µM	1.37 µM	2.91 µM	1.52 µM	> 100 µM	1.63 µM	3.16 µM
Cc1cn2c(/C=C3\C(=O)Nc4ccc(O)cc43)c(-c3ccc(Cl)cc3)nc2s1	20.8 µM	81.1 µM	21.2 µM	51.4 µM	17.6 µM	88.8 µM	10.4 µM	40.9 µM	33.4 µM	72.8 µM	2.59 µM	7.63 µM	17.8 µM	> 100 µM
O=C(c1ccc(F)c(F)c1Nc1ccc(I)cc1F)N1CC(O)([C@@H]2CCCCN2)C1	< 0.01 µM and 0.00238 µM	4.06 µM	< 0.0277 µM and 0.0403 µM	15.1 µM and > 10 µM	< 0.01 µM and 0.00943 µM	15.1 µM and > 10 µM	0.216 µM and 0.574 µM	6.15 µM and > 10 µM	2.36 µM	17.9 µM and > 10 µM	1.64 µM and 3.35 µM	9.66 µM and > 10 µM	0.463 µM and 0.637 µM	15.1 µM and > 10 µM
Cc1nc2cnc(N)c(C#Cc3cncc(C(=O)Nc4ccc(CN5CCN(C)CC5)c(C(F)(F)F)c4)c3)c2nc1C	0.0558 µM	0.634 µM	0.304 µM	11 µM	0.14 µM	6 µM	–	8.18 µM	0.31 µM	1.54 µM	1.67 µM	10.9 µM	0.564 µM	5.9 µM
Ic1ccc(-n2nnnc2-c2cnoc2-c2ccccc2)cc1	> 59 µM	> 100 µM	> 100 µM	> 100 µM	24.5 µM	> 57.5 µM	29.2 µM	> 66.6 µM	37.9 µM	> 100 µM	37.7 µM	> 100 µM	> 61.1 µM	> 100 µM
COc1ccncc1C#Cc1cncc(C(=O)Nc2ccc(CN3CCN(C)CC3)c(C(F)(F)F)c2)c1	11.2 µM	64 µM	23 µM	> 100 µM	15 µM	> 100 µM	0.0229 µM	> 100 µM	22.6 µM	> 100 µM	–	–	19.3 µM	> 100 µM
NS(=O)(=O)c1ccc(N(/C=C/C(=O)C(F)(F)F)CC(=O)c2ccc(Cl)cc2)cc1	32.2 µM	> 100 µM	57 µM	> 100 µM	> 100 µM	> 100 µM	33.5 µM	93.6 µM	24.4 µM	66 µM	–	–	30.4 µM	91.4 µM
COc1cccc2c1C(=O)c1c(O)c3c(c(O)c1C2=O)CC(O)(/C(C)=N/NC(=O)CCC(=O)N/N=C(\C)C1(O)Cc2c(O)c4c(c(O)c2C(OC2CC(N)C(O)C(C)O2)C1)C(=O)c1c(OC)cccc1C4=O)CC3OC1CC(N)C(O)C(C)O1 (stereo not drawn)	0.157 µM	0.795 µM	1.02 µM	3.68 µM	0.552 µM	3.29 µM	0.341 µM	7.69 µM	0.895 µM	17.7 µM	–	–	0.277 µM	2.9 µM
C=CC(=O)N1CCC(C2CCNc3c(C(N)=O)c(-c4ccc(Oc5ccccc5)cc4)nn32)CC1 (stereo not drawn)	19.1 µM	40.2 µM	31.2 µM	> 100 µM	13.4 µM	38 µM	–	–	4.51 µM	71 µM	10.4 µM	46.8 µM	2.32 µM	23.6 µM
